{"source": "paper PMC2962730", "about": "(Journal of neurochemistry, 2010)", "key": {"hVAChT wild-type": {"target": "T1, hVAChT wild-type (Homo sapiens, UniProt Q16572)", "T1 sequence (Q16572 1-532)": "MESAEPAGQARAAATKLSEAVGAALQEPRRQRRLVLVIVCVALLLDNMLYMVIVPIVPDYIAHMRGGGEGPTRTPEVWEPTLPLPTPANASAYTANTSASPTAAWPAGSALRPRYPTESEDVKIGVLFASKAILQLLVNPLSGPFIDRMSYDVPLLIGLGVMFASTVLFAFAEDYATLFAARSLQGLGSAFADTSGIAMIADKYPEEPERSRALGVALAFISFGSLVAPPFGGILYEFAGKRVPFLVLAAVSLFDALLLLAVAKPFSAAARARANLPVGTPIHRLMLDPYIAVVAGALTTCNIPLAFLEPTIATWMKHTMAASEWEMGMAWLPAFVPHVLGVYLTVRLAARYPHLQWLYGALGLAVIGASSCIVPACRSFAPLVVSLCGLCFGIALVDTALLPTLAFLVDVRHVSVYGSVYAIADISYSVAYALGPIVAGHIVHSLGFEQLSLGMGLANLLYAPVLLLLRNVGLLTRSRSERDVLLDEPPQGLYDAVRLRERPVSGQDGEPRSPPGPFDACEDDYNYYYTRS", "assay": "[3H]ACh transport", "assay_type": "biochemical", "conditions": "WT hVAChT, pH 7.4"}, "hVAChT Y60A": {"target": "T2, hVAChT Y60A (Homo sapiens, UniProt Q16572, Y60A)", "T2 sequence (Q16572 1-532 Y60A)": "T1 sequence (Q16572 1-532) with Y60A", "assay": "[3H]ACh transport", "assay_type": "biochemical"}, "hVAChT Y60H": {"target": "T3, hVAChT Y60H (Homo sapiens, UniProt Q16572, Y60H)", "T3 sequence (Q16572 1-532 Y60H)": "T1 sequence (Q16572 1-532) with Y60H", "assay": "ACh equilibrium binding by competition against [3H]vesamicol"}, "hVAChT A330V": {"target": "T4, hVAChT A330V (Homo sapiens, UniProt Q16572, A330V)", "T4 sequence (Q16572 1-532 A330V)": "T1 sequence (Q16572 1-532) with A330V", "assay": "ACh equilibrium binding by competition against [3H]vesamicol"}, "hVAChT C391A": {"target": "T5, hVAChT C391A (Homo sapiens, UniProt Q16572, C391A)", "T5 sequence (Q16572 1-532 C391A)": "T1 sequence (Q16572 1-532) with C391A", "assay": "ACh equilibrium binding by competition against [3H]vesamicol"}}, "note": "Changes are numbered by the printed parent chain.", "data": [{"smiles": "CC(=O)OCC[N+](C)(C)C", "note": "[ACh, acetylcholine]", "values": [{"measurement": "Vmax/Bmax, ACh transport normalized to Bmax", "setting": "hVAChT wild-type", "value": "6.8 ± 0.5", "unit": "min⁻¹"}, {"measurement": "Km", "setting": "hVAChT wild-type; read-out: KM, Michaelis-Menten constant for ACh transport", "value": "950 ± 200", "unit": "µM"}, {"measurement": "Vmax/Bmax, ACh transport normalized to Bmax", "setting": "hVAChT Y60A; pH 7.4", "value": "4.7 ± 0.8", "unit": "min⁻¹"}, {"measurement": "Km", "setting": "hVAChT Y60A; read-out: KM, Michaelis-Menten constant for ACh transport, pH 7.4", "value": "480 ± 320", "unit": "µM"}, {"measurement": "Kd", "setting": "hVAChT Y60H", "value": 11, "unit": "mM"}, {"measurement": "FHA, fraction of the ACh sites that have high affinity", "setting": "hVAChT Y60H; Y60H hVAChT, pH 7.4", "value": "0.82 ± 0.04"}, {"measurement": "Kd", "setting": "hVAChT A330V", "value": "12 ± 5", "unit": "mM"}, {"measurement": "decrease in the fraction of high-affinity binding by ACh", "setting": "hVAChT A330V; A330V hVAChT vs wild-type", "value": 2, "unit": "fold"}, {"measurement": "FHA, fraction of the ACh sites that have high affinity", "setting": "hVAChT A330V; A330V hVAChT, pH 7.4", "value": "0.44 ± 0.11"}, {"measurement": "Kd", "setting": "hVAChT C391A", "value": "10 ± 3", "unit": "mM"}, {"measurement": "FHA, fraction of the ACh sites that have high affinity", "setting": "hVAChT C391A; C391A hVAChT, pH 7.4", "value": "0.71 ± 0.07"}]}]}
